Our source for the inhibition values is ChEMBL document CHEMBL3046695, “Structure-antifeedant activity relationship of clerodane diterpenoids. Comparative study with withanolides and azadirachtin” (2000).

This assay deals with Tenebrio molitor. Briefly: Antifeedant activity against third-instar larvae Tenebrio molitor in compound treated carrot slices assessed as feeding inhibition at 100 ppm. Format: functional. Particulars: in Daucus carota.
Turning to `C/C=C(\C)C(=O)O[C@H]1C[C@@H](OC(C)=O)[C@@]2(C(=O)OC)CO[C@H]3[C@@H](O)[C@@](C)([C@]45O[C@@]4(C)[C@@H]4C[C@H]5O[C@@H]5OC=C[C@@]54O)[C@H]4[C@]1(CO[C@]4(O)C(=O)OC)[C@@H]32` [AZADIRACHTIN A], the inhibition at 100 ppm is 29.6%.

On to `C[C@H](c1ccc2c(c1)CC[C@H]1[C@H]2C[C@@H]2O[C@@]23CC=CC(=O)[C@]13C)[C@@H]1C[C@@]2(C)O[C@@]2(C)[C@@H](O)O1`, for which the inhibition at 100 ppm amounted to 29.9%.

On to `CC1=C(C)C(=O)OC(C2CO[C@@]3(O)C[C@H]4[C@@H](C[C@@H](O)[C@@]5(O)CC=CC(=O)[C@]45C)[C@@H]4CC[C@]2(O)C43)C1` (stereo not given in full), for which the inhibition at 100 ppm was 31.6%.

Consider `C[C@]12C[C@H](C3CCOC3)OC(=O)[C@@H]1CC[C@@]13COC(=O)[C@H]1CCC[C@@H]23` (stereo not given in full), for which the inhibition at 100 ppm was found to be 49.4%.

As for `CC1=C(C)[C@H]([C@H]2O[C@@]3(O)C[C@H]4[C@@H](C[C@H]5O[C@]56CC=CC(=O)[C@]46C)[C@@H]4CC[C@@](O)([C@@H]2C)[C@]43C)OC1=O` [TRECHONOLIDE A], the inhibition at 100 ppm was found to be 44.7%.

Consider `CC(=O)OC[C@@]12[C@@H](OC(C)=O)C[C@@H](C)[C@]3(C[C@H](c4ccoc4)OC3=O)[C@H]1CCC[C@@H]2C=O`, for which the inhibition at 100 ppm worked out at 41%.

As for `CC(=O)OC[C@@]12[C@@H](OC(C)=O)C[C@@H](C)[C@](C)(C[C@H](OC(C)=O)c3ccoc3)[C@@H]1CCC[C@]21CO1`, the inhibition at 100 ppm was 31.4%.

As to `C[C@@H]1CC[C@@]23COC(=O)C2=CCC[C@H]3[C@@]1(C)CCC1COC(=O)C1` (stereo not given in full), the inhibition at 100 ppm stood at 62.6%.

Regarding `C[C@@H]1CC[C@@]23COC(=O)C2=CCC[C@H]3[C@@]1(C)CCc1ccoc1`, the inhibition at 100 ppm was determined as 31%.

`C[C@]12C[C@H](c3ccoc3)OC(=O)[C@@H]1[C@H](O)C[C@@]13COC(=O)C1=CCC[C@H]32`: the inhibition at 100 ppm is 26.6%.

For the compound `CC(=O)OC[C@@]12[C@@H](OC(C)=O)C[C@@H](C)[C@]3(C[C@H](c4ccoc4)OC3=O)[C@H]1CC[C@H](OC(C)=O)[C@]21CO1`, the inhibition at 100 ppm worked out at 30.6%.

In the case of `C[C@]12C[C@H](c3ccoc3)OC[C@@H]1CC[C@@]13COC(=O)[C@H]1CCC[C@@H]23`, the inhibition at 100 ppm amounted to 46%.

Consider `C[C@]12C[C@H](c3ccoc3)OC(=O)[C@H]1CC[C@@]13COC(=O)[C@H]1C=CC[C@@H]23`, for which the inhibition at 100 ppm was found to be 47.3%.

For the compound `CC(=O)OC[C@@]12[C@@H](OC(C)=O)C[C@@H](C)[C@]3(C[C@H](c4ccoc4)OC3=O)[C@H]1CCC[C@]21CO1` [MONTANIN C], the inhibition at 100 ppm is 25%.

Consider `CC1=CC2C[C@@H]3[C@@]1(CC[C@H](C)[C@@]31C[C@@H](c3ccoc3)OC1=O)C(=O)O2`, for which the inhibition at 100 ppm worked out at 62.7%.

Turning to `CC(=O)O[C@H](C[C@@]1(C)[C@H](C)CC[C@]2(C)[C@H]1CCC[C@@]21CO1)/C(=C/CO)CO`, the inhibition at 100 ppm came out at 51.9%.

In the case of `C[C@@H]1[C@H](O)C[C@@]23COC(=O)[C@H]2CC[C@H](O)[C@H]3[C@@]1(C)CCC1CCOC1` (stereo not given in full), the inhibition at 100 ppm worked out at 48.4%.

With `C[C@@H]1[C@H](O)C[C@@]23COC(=O)C2=CC[C@H](O)[C@H]3[C@@]1(C)CCc1ccoc1`, the inhibition at 100 ppm was determined as 31.3%.

As to `CC(=O)OC[C@@]12[C@@H](OC(C)=O)C[C@@H](C)[C@]3(C[C@H](c4ccoc4)OC3=O)[C@H]1CCCC2(O)O`, the inhibition at 100 ppm is 45%.

Consider `C=C1CCC[C@H]2[C@@](C)(C/C=C(/CO)CCO)[C@H](C)CC[C@@]12C`, for which the inhibition at 100 ppm is 57.3%.

On to `C[C@]12C[C@H](c3ccoc3)OC(=O)[C@@H]1CC[C@@]13COC(=O)C1=CCC[C@H]32`, for which the inhibition at 100 ppm is 22.6%.

On to `C[C@H]1CC[C@@]23C(=O)OC(C[C@H]2[C@]12C[C@@H](c1ccoc1)OC2=O)[C@H]1O[C@]13C`, for which the inhibition at 100 ppm came out at 57.9%.

As for `CC(=O)OC[C@@]12[C@@H](OC(C)=O)C[C@@H](C)[C@](C)(CC(=O)c3ccoc3)[C@@H]1CCC[C@]21CO1`, the inhibition at 100 ppm was found to be 58%.

Regarding `COC1C=C([C@H]2C[C@@]3(C(=O)O2)[C@H](C)C[C@H](OC(C)=O)[C@]2(COC(C)=O)[C@@H]3CCC[C@]23CO3)C(OC)O1` (stereo not given in full), the inhibition at 100 ppm was 47.3%.

Turning to `C[C@@H]1CC[C@@]2(CO)C(CO)=CCC[C@H]2[C@@]1(C)CCc1ccoc1`, the inhibition at 100 ppm was 48.7%.
